Reference: the supplement of paper PMC10307832

Legend:
Assay in all cases: relative viability (nuclei count vs DMSO), 5 days (fraction); higher = more cells survive
[1] = compound: N#CC1(c2ccc(NC(=O)c3cccnc3NCc3ccncc3)cc2)CCCC1 [Apatinib] + CS(=O)(=O)N1CCN(Cc2cc3nc(-c4cccc5[nH]ncc45)nc(N4CCOCC4)c3s2)CC1 [Pictilisib] (partner 1 µM)
Method in brief: (§1)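 The day after seeding in 1536-well plates, lung cancer cell lines were treated by pin tool with a single drug, or with a fixed anchor-drug dose together with five library-drug doses (not always all listed) in √10 steps. After 5 days, a combined fix-and-stain solution (final 0.05% Triton X-100, 1% formaldehyde, 1 ug/ml Hoechst) was added. Nuclei counted on 4× images gave relative viability as treated counts over vehicle counts, reported as the median of duplicate plates.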

[2] = compound: CN(C)C(=N)NC(=N)N [Metformin] + N=C(N)NC(=N)NCCc1ccccc1 [Phenformin] (partner 250 µM)
Method in brief: as §1

[3] = compound: N#CC1(c2ccc(NC(=O)c3cccnc3NCc3ccncc3)cc2)CCCC1 [Apatinib] + CC(=O)Nc1cccc(-n2c(=O)n(C3CC3)c(=O)c3c(Nc4ccc(I)cc4F)n(C)c(=O)c(C)c32)c1 [Trametinib] (partner 0.02 µM)
Method in brief: as §1

[4] = compound: N#CC1(c2ccc(NC(=O)c3cccnc3NCc3ccncc3)cc2)CCCC1 [Apatinib] + O=C(CCCCCCC(=O)Nc1ccccc1)NO [Vorinostat] (partner 1 µM)
Method in brief: as §1

Row | Cell Line | relative viability ([1]; first compound 0.08 µM) | relative viability ([1]; first compound 0.253 µM) | relative viability ([1]; first compound 0.8 µM) | relative viability ([1]; first compound 2.53 µM) | relative viability ([1]; first compound 8 µM) | relative viability ([2]; first compound 10 µM) | relative viability ([2]; first compound 31.62 µM) | relative viability ([2]; first compound 100 µM) | relative viability ([2]; first compound 316.23 µM) | relative viability ([2]; first compound 1000 µM) | relative viability ([3]; first compound 0.08 µM) | relative viability ([3]; first compound 0.253 µM) | relative viability ([3]; first compound 0.8 µM) | relative viability ([3]; first compound 2.53 µM) | relative viability ([3]; first compound 8 µM) | relative viability ([4]; first compound 0.08 µM) | relative viability ([4]; first compound 0.253 µM) | relative viability ([4]; first compound 0.8 µM) | relative viability ([4]; first compound 2.53 µM) | relative viability ([4]; first compound 8 µM)
1 | NCI-H23 | 0.547 | 0.522 | 0.458 | 0.426 | 0.492 | 0.743 | 0.716 | 0.716 | 0.729 | 0.897 | 0.477 | 0.393 | 0.427 | 0.426 | 0.31 | 0.696 | 0.793 | 0.568 | 0.491 | 0.524
2 | NCI-H322M | 0.513 | 0.488 | 0.523 | 0.627 | 0.528 | 0.839 | 0.802 | 0.809 | 0.735 | 0.746 | 0.506 | 0.651 | 0.494 | 0.545 | 0.425 | 0.846 | 0.846 | 0.885 | 0.897 | 0.885
3 | NCI-H358 | 0.282 | 0.241 | 0.283 | 0.298 | 0.301 | 0.351 | 0.237 | 0.217 | 0.309 | 0.328 | 0.144 | 0.12 | 0.179 | 0.159 | 0.131 | 0.762 | 0.866 | 0.616 | 0.618 | 0.578
4 | NCI-H441 | 0.583 | 0.566 | 0.51 | 0.408 | 0.32 | – | 0.707 | 0.706 | 0.586 | 0.803 | 0.52 | 0.46 | 0.434 | 0.442 | 0.503 | 0.891 | 0.673 | 0.827 | 0.809 | 0.574
5 | NCI-H460 | 0.335 | 0.374 | 0.452 | 0.391 | 0.458 | 0.426 | 0.541 | 0.516 | 0.509 | 0.523 | 0.119 | 0.172 | 0.223 | 0.134 | 0.128 | 0.741 | 0.73 | 0.623 | 0.577 | 0.417
6 | NCI-H520 | 0.281 | 0.268 | 0.301 | 0.314 | 0.275 | 1.08 | 0.892 | 0.603 | 0.658 | 0.78 | 0.666 | 0.66 | 0.787 | 0.485 | 0.325 | 0.77 | 0.736 | 0.708 | 0.672 | 0.452
7 | NCI-H596 | 0.419 | 0.402 | 0.353 | 0.32 | 0.383 | 0.84 | 0.73 | 0.689 | 0.765 | 0.952 | 0.89 | 0.831 | 0.803 | 0.696 | 0.722 | 0.703 | 0.58 | 0.672 | 0.492 | 0.546
8 | NCI-H647 | 0.492 | 0.5 | 0.419 | 0.349 | 0.395 | 0.614 | 0.58 | 0.62 | 0.521 | 0.653 | 0.547 | 0.501 | 0.457 | 0.439 | 0.315 | 0.596 | 0.868 | 0.473 | 0.669 | 0.343
9 | NCI-H650 | 0.963 | 0.878 | 0.847 | 0.678 | 0.654 | 0.446 | 0.509 | 0.357 | 0.436 | 0.494 | 0.98 | 0.918 | 1.02 | 0.963 | 1.02 | 0.494 | 0.422 | 0.391 | 0.264 | 0.42
10 | NCI-H661 | 0.273 | 0.393 | 0.461 | 0.381 | 0.367 | 0.284 | 0.262 | 0.264 | 0.267 | 0.267 | 0.606 | 0.594 | 0.571 | 0.532 | 0.463 | 0.814 | 0.75 | 0.739 | 0.722 | 0.716
11 | NCI-H727 | 0.328 | 0.306 | 0.358 | 0.364 | 0.367 | 0.321 | 0.707 | 0.585 | – | 0.573 | 0.386 | – | 0.386 | 0.416 | 0.342 | 1.18 | – | 1.23 | 1.08 | 0.999
12 | NCI-H838 | 0.533 | 0.462 | 0.41 | 0.469 | 0.451 | 0.709 | 0.671 | 0.661 | 0.667 | 0.749 | 0.626 | 0.573 | 0.473 | 0.49 | 0.467 | 0.778 | 0.784 | 0.702 | 0.652 | 0.722
13 | NCI-H1355 | 0.499 | 0.42 | 0.428 | 0.382 | 0.364 | 0.472 | 0.412 | 0.474 | 0.432 | 0.47 | 0.422 | 0.444 | 0.354 | 0.367 | 0.314 | 0.677 | 0.703 | 0.616 | 0.515 | 0.569
14 | NCI-H1395 | 0.594 | 0.552 | 0.64 | 0.524 | 0.555 | 0.448 | 0.429 | 0.525 | 0.423 | 0.467 | 1.03 | 1.05 | 0.915 | 0.965 | 0.965 | 0.772 | 0.815 | 0.64 | 0.535 | 0.605
15 | NCI-H1437 | 0.468 | 0.441 | 0.377 | 0.392 | 0.284 | 0.296 | 0.363 | 0.338 | 0.343 | 0.299 | 0.526 | 0.532 | 0.433 | 0.314 | 0.348 | 0.854 | 0.928 | 0.71 | 0.554 | 0.534
16 | NCI-H1650 | 0.355 | 0.658 | 0.58 | 0.526 | 0.477 | 0.7 | 0.548 | 0.593 | 0.458 | 0.476 | 0.607 | 0.659 | 0.395 | 0.515 | 0.482 | 0.564 | 0.559 | 0.513 | 0.412 | 0.489
